Measured values from patent US10538555B2, “Macrocyclic inhibitors of the PD-1/PD-L1 and CD80(B7-1)/PD-L1 protein/protein interactions” (BRISTOL-MYERS SQUIBB COMPANY, priority 2014, dated 2020).
Where two headings read alike, the source gives them in different places. *1 amine or outer side, *2 acyl side, *3 side chain or, on linkers, in order; H or OH if unused. Where a SMILES comes first, the peptide text is derived from it. Bridges are numbered along the chain shown (N, C = ends). [ ]: non-standard residue; d: D form. ξ: configuration not given here. Phe(3,4,5-F3) = N[C@@H](Cc1cc(F)c(F)c(F)c1)C(=O)O; NMePhe(4-F) = CN[C@@H](Cc1ccc(F)cc1)C(=O)O; d(cisHyp) = O=C(O)[C@H]1C[C@@H](O)CN1; Bta = N[C@@H](Cc1csc2ccccc12)C(=O)O; Hyp = O=C(O)[C@@H]1C[C@@H](O)CN1; NMeF = CN[C@@H](Cc1ccccc1)C(=O)O; X1 = O=C([C@H]1COCCN1[*:1])[*:2]; NMehSer = CN[C@@H](CCO)C(=O)O; NMeNle = CCCC[C@H](NC)C(=O)O; dPip = O=C(O)[C@H]1CCCCN1; hSer = N[C@@H](CCO)C(=O)O; NMeA = CN[C@@H](C)C(=O)O; Orn = NCCC[C@H](N)C(=O)O; dThz = O=C(O)[C@H]1CSCN1; Dap = NC[C@H](N)C(=O)O; ξC = NC(CS)C(=O)O; Sar = CNCC(=O)O

Target: T1, Human PD-L1/PD-1 (Homo sapiens, UniProt Q9NZQ7)
T1 construct: TVMV protease cleavage site (C); made in house; host or cells: HEK293T cells
Experiment: HTRF Human PD-L1/PD-1 binding assay (PD-1-Ig/PD-L1-His)
Details: PD-L1-His 10 nM, PD-1-Ig 20 nM
Method in brief: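 Step 1: compound with PD-L1-His (10 nM final), 15 min. Step 2: PD-1-Ig (20 nM final), 15 min. Step 3: Eu-cryptate anti-Ig (1 nM) plus APC anti-His (20 nM), 30 min equilibration. Signal taken as 665 nm/620 nm ratio.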

[1] = class symbol, read-out: HTRF Human PD-L1/PD-1 Binding Assay IC50 Range

T1 sequence (Q9NZQ7 with tags, fused parts or gaps): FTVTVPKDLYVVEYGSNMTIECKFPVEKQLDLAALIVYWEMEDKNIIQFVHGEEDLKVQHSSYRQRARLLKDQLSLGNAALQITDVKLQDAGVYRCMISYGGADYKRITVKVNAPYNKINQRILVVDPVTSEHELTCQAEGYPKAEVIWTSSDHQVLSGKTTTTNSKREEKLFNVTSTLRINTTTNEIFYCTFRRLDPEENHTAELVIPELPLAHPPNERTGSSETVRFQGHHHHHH

| Compound | IC50 [1] | IC50 (read-out: HTRF Human PD-L1/PD-1 Binding Assay IC50) |
| --- | --- | --- |
| CCCC[C@H]1C(=O)N(C)[C@@H](CCCC)C(=O)N[C@@H](CCCNC(=N)N)C(=O)NC(C(=O)NCC(N)=O)CSCC(=O)N[C@@H](Cc2ccc(O)cc2)C(=O)N(C)[C@@H](C)C(=O)N[C@@H](Cc2cnc[nH]2)C(=O)N2CCC[C@H]2C(=O)N[C@@H](CC(N)=O)C(=O)N[C@@H](CC(C)C)C(=O)N2CCC[C@H]2C(=O)N[C@@H](Cc2c[nH]c3ccccc23)C(=O)N[C@@H](CO)C(=O)N[C@@H](Cc2csc3ccccc23)C(=O)N1C (stereo partly drawn) [Example 9145] ({CH2CO}-Y[NMeA]HPNLPWS[Bta][NMeNle][NMeNle]R[ξC]G-NH2; thioether N-14) | 1 to 9.9 nM | – |
| CCCC[C@H]1C(=O)N(C)CC(=O)N[C@@H](CC(N)=O)C(=O)N[C@@H](C(C)C)C(=O)N(C)[C@@H](Cc2ccccc2)C(=O)N[C@@H](Cc2ccc(O)cc2)C(=O)N(C)CC(=O)N[C@@H](Cc2c[nH]c3ccccc23)C(=O)N[C@@H](Cc2ccc(O)cc2)C(=O)N[C@@H](CCCN)C(=O)N[C@H](C(=O)NCC(N)=O)CSCC(=O)N[C@@H](Cc2ccccc2)C(=O)N(C)[C@@H](Cc2ccncc2)C(=O)N1C (single isomer, unassigned) [Example 3638-A] | 1000 to 10000 nM | – |
| CCCC[C@H]1C(=O)N2CCC[C@@H]2C(=O)N[C@@H](CN)C(=O)N[C@@H](C(C)C)C(=O)N(C)[C@@H](Cc2ccccc2)C(=O)N[C@@H](Cc2ccc(O)cc2)C(=O)N2CSC[C@@H]2C(=O)N[C@@H](Cc2c[nH]c3ccccc23)C(=O)N[C@@H](Cc2ccc(O)cc2)C(=O)N[C@@H](CC(C)C)C(=O)N[C@H](C(=O)NCC(N)=O)CSCC(=O)N[C@@H](Cc2ccccc2)C(=O)N(C)[C@@H](Cc2ccccc2)C(=O)N1C [Example 10071] ({CH2CO}-F[NMeF][NMeNle][dP][Dap]V[NMeF]Y[dThz]WYLCG-NH2; thioether N-13) | 10 to 99.9 nM | – |
| CCCC[C@H]1C(=O)N(C)[C@@H](CCCC)C(=O)N[C@@H](CCC(=O)O)C(=O)N[C@H](C(=O)NCC(N)=O)CSCC(=O)N[C@@H](Cc2ccc(OC)cc2)C(=O)N(C)[C@@H](C)C(=O)N[C@@H](CC(N)=O)C(=O)N2CCC[C@H]2C(=O)N[C@@H](CN)C(=O)N[C@@H](CCC(=O)O)C(=O)N2C[C@H](O)C[C@H]2C(=O)N[C@@H](Cc2c[nH]c3ccccc23)C(=O)N[C@@H](CC(=O)O)C(=O)N[C@@H](Cc2c[nH]c3ccccc23)C(=O)N1C [Example 7117] ({CH2CO}-Y(Me)[NMeA]NP[Dap]E[Hyp]WDW[NMeNle][NMeNle]ECG-NH2; thioether N-14) | 10 to 99.9 nM | – |
| CCCC[C@H]1C(=O)N(C)[C@@H](CCCC)C(=O)N[C@@H](CN)C(=O)N[C@H](C(=O)NCC(N)=O)CSCC(=O)N[C@@H](Cc2ccc(O)cc2)C(=O)N(C)[C@@H](C)C(=O)N[C@@H](CC(=O)O)C(=O)N2CCC[C@H]2C(=O)N[C@@H](Cc2c[nH]cn2)C(=O)N[C@@H](CCC(=O)O)C(=O)N2C[C@H](O)C[C@H]2C(=O)N[C@@H](Cc2c[nH]c3ccccc23)C(=O)N[C@@H](CCN)C(=O)N[C@@H](Cc2cn(CC(=O)O)c3ccccc23)C(=O)N1C (single isomer, unassigned) [Example 5203] | 1 to 9.9 nM | – |
| CCCC[C@H]1C(=O)N(C)[C@@H](CCOC)C(=O)N[C@@H](CO)C(=O)N[C@H](C(=O)NCC(N)=O)CSCC(=O)N[C@@H](Cc2ccc(O)cc2)C(=O)N(C)[C@@H](C)C(=O)N[C@@H](CC(N)=O)C(=O)N2CCC[C@H]2C(=O)N[C@@H](Cc2c[nH]cn2)C(=O)N[C@@H](CCC(N)=O)C(=O)N2C[C@H](O)C[C@H]2C(=O)N[C@@H](Cc2c[nH]c3ccccc23)C(=O)N[C@@H](CO)C(=O)N[C@@H](Cc2c[nH]c3ccccc23)C(=O)N1C [Example 10144] ({CH2CO}-Y[NMeA]NPHQ[Hyp]WSW[NMeNle][NMehSer](Me)SCG-NH2; thioether N-14) | 1 to 9.9 nM | – |
| CCCC[C@H]1C(=O)N2C[C@H](O)C[C@@H]2C(=O)N[C@@H](CC(=O)O)C(=O)N[C@@H](C(C)C)C(=O)N(C)[C@@H](Cc2ccccc2)C(=O)N[C@@H](CCC(=O)O)C(=O)N2CCOC[C@@H]2C(=O)N[C@@H](Cc2c[nH]c3ccccc23)C(=O)N[C@@H](Cc2ccc(O)cc2)C(=O)N[C@@H](CC(N)=O)C(=O)N[C@H](C(=O)NCC(N)=O)CSCC(=O)N[C@@H](Cc2cc(F)c(F)c(F)c2)C(=O)N(C)[C@@H](Cc2ccc(F)cc2)C(=O)N1C [Example 10591] ({CH2CO}-[Phe(3,4,5-F3)][NMePhe(4-F)][NMeNle][d(cisHyp)]DV[NMeF]E[X1]WYNCG-NH2; thioether N-13) | 1 to 9.9 nM | – |
| CCCC[C@H]1C(=O)N2C[C@H](O)C[C@@H]2C(=O)N[C@@H](CC(=O)O)C(=O)N[C@@H](C(C)C)C(=O)N(C)[C@@H](Cc2ccccc2)C(=O)N[C@@H](Cc2ccc(O)cc2)C(=O)N2CCOC[C@@H]2C(=O)N[C@@H](Cc2c[nH]c3ccccc23)C(=O)N[C@@H](Cc2ccc(O)cc2)C(=O)N[C@@H](CCOC)C(=O)N[C@H](C(=O)NCC(N)=O)CSCC(=O)N[C@@H](Cc2cc(F)c(F)c(F)c2)C(=O)N(C)[C@@H](Cc2ccccc2)C(=O)N1C [Example 10160] ({CH2CO}-[Phe(3,4,5-F3)][NMeF][NMeNle][d(cisHyp)]DV[NMeF]Y[X1]WY[hSer](Me)CG-NH2; thioether N-13) | 1 to 9.9 nM | – |
| CCCC[C@H]1C(=O)N(C)CC(=O)N[C@@H](CC(=O)O)C(=O)N[C@@H](C(C)C)C(=O)N[C@@H](Cc2c[nH]c3ccccc23)C(=O)N[C@@H](Cc2c[nH]c3ccccc23)C(=O)N(C)CC(=O)N[C@@H](Cc2c[nH]c3ccccc23)C(=O)N[C@@H](Cc2ccc(O)cc2)C(=O)N[C@@H](CC(C)C)C(=O)N[C@H](C(=O)NCC(N)=O)CSCC(=O)N[C@@H](Cc2ccccc2)C(=O)N(C)[C@@H](Cc2ccccc2)C(=O)N1C [Example 3234] ({CH2CO}-F[NMeF][NMeNle][Sar]DVWW[Sar]WYLCG-NH2; thioether N-13) | – | 10000 nM |
| CCCC[C@H]1C(=O)N[C@@H](CC(N)=O)C(=O)N2CCC[C@H]2C(=O)N[C@@H](CO)C(=O)N[C@@H](CCO)C(=O)N2C[C@H](O)C[C@H]2C(=O)N[C@@H](Cc2c[nH]c3ccccc23)C(=O)N[C@@H](CCCN)C(=O)N[C@@H](Cc2c[nH]c3ccccc23)C(=O)N(C)[C@@H](C)C(=O)N(C)[C@@H](C)C(=O)N[C@@H](CCCNC(=N)N)C(=O)NC(C(=O)NCC(N)=O)CSCC(=O)N[C@@H](Cc2ccc(O)cc2)C(=O)N1C (stereo partly drawn) [Example 10201] ({CH2CO}-Y[NMeNle]NPS[hSer][Hyp]W[Orn]W[NMeA][NMeA]R[ξC]G-NH2; thioether N-14) | 1000 to 10000 nM | – |
| CCCC[C@H]1C(=O)N(C)[C@@H](CCCC)C(=O)N(C)CC(=O)N[C@H](C(=O)NCC(N)=O)CSCC(=O)N[C@@H](Cc2ccc(O)cc2)C(=O)N(C)[C@@H](C)C(=O)N[C@@H](CC(N)=O)C(=O)N2CCC[C@H]2C(=O)N[C@@H](Cc2c[nH]cn2)C(=O)N[C@@H](CCC(N)=O)C(=O)N2C[C@H](O)C[C@H]2C(=O)N[C@@H](Cc2c[nH]c3ccccc23)C(=O)N[C@@H](CO)C(=O)N[C@@H](Cc2c[nH]c3ccccc23)C(=O)N1C [Example 5263] ({CH2CO}-Y[NMeA]NPHQ[Hyp]WSW[NMeNle][NMeNle][Sar]CG-NH2; thioether N-14) | 1000 to 10000 nM | – |
| CCCC[C@H]1C(=O)N2CCC[C@@H]2C(=O)N[C@@H](CC(=O)O)C(=O)N[C@@H](C(C)C)C(=O)N(C)[C@@H](Cc2ccccc2)C(=O)N[C@@H](CCC(=O)O)C(=O)N2CCCC[C@@H]2C(=O)N[C@@H](Cc2c[nH]c3ccccc23)C(=O)N[C@@H](Cc2ccc(O)cc2)C(=O)N[C@@H](CC(C)C)C(=O)N[C@H](C(=O)NCC(N)=O)CSCC(=O)N[C@@H](Cc2cc(F)c(F)c(F)c2)C(=O)N(C)[C@@H](Cc2ccc(F)cc2)C(=O)N1C [Example 10561] ({CH2CO}-[Phe(3,4,5-F3)][NMePhe(4-F)][NMeNle][dP]DV[NMeF]E[dPip]WYLCG-NH2; thioether N-13) | 1 to 9.9 nM | – |
